From ChEMBL document CHEMBL4364251, “Design, synthesis and biological evaluation of new quinoline derivatives as potential antitumor agents” (Eur J Med Chem, 2019)

Columns and labels:
Format in all cases: functional, cell-based
[1] = test system: HCT-116; assay: Antiproliferative activity against human HCT116 cells incubated for 48 hrs by MTT assay; settings: HCT-116, 48 h
[2] = test system: RKO; assay: Antiproliferative activity against human RKO cells incubated for 48 hrs by MTT assay
[3] = test system: A2780; assay: Antiproliferative activity against human A2780 cells incubated for 48 hrs by MTT assay; settings: A2780, 48 h
[4] = test system: HeLa; assay: Antiproliferative activity against human HeLa cells incubated for 48 hrs by MTT assay
[5] = test system: BGC-823; assay: Antiproliferative activity against human BGC823 cells incubated for 48 hrs by MTT assay; settings: BGC-823, 48 h
[6] = test system: A549; assay: Antiproliferative activity against human A549 cells incubated for 48 hrs by MTT assay; settings: A549, 48 h
[7] = test system: NCI-H1650; assay: Antiproliferative activity against human NCI-H1650 cells incubated for 48 hrs by MTT assay; settings: NCI-H1650, 48 h

Row | Structure (SMILES) | IC50 [1] [µM] | IC50 [2] [µM] | IC50 [3] [µM] | IC50 [4] [µM] | IC50 [5] [µM] | IC50 [6] [µM] | IC50 [7] [µM]
1 | O=[N+]([O-])c1cccc(Nc2ccnc3cc(F)ccc23)c1 | > 10 | > 10 | > 10 | > 10 | > 10 | > 10 | > 10
2 | CCOc1ccc2c(Nc3cccc(F)c3)ccnc2c1 | > 10 | > 10 | > 10 | 0.68 | 9.85 | > 10 | > 10
3 | CCCCOc1ccc2c(Nc3cccc(F)c3)ccnc2c1 | > 10 | > 10 | 8.2 | 1.43 | 9.42 | > 10 | > 10
4 | C=CCOc1ccc2c(Nc3cccc([N+](=O)[O-])c3)ccnc2c1 | > 10 | > 10 | 6.77 | 0.22 | 3.83 | > 10 | > 10
5 | C=CCOc1ccc2c(Nc3cccc(F)c3)ccnc2c1 | > 10 | > 10 | 1.19 | 0.31 | > 10 | > 10 | > 10
6 | COc1cccc(Nc2ccnc3cc(OCc4ccccc4)ccc23)c1 | > 10 | > 10 | > 10 | > 10 | > 10 | > 10 | > 10
7 | COc1ccc2c(Nc3cccc(O)c3)ccnc2c1 | > 10 | > 10 | > 10 | > 10 | > 10 | > 10 | > 10
8 | COc1cccc(Nc2ccnc3cc(Cl)ccc23)c1 | > 10 | > 10 | > 10 | > 10 | > 10 | > 10 | > 10
9 | COc1ccc2c(Nc3cccc([N+](=O)[O-])c3)ccnc2c1 | > 10 | > 10 | > 10 | > 10 | 7.45 | > 10 | > 10
10 | COc1cccc(Nc2ccnc3cc(Br)ccc23)c1 | > 10 | > 10 | > 10 | > 10 | > 10 | > 10 | > 10
11 | Brc1cccc(Nc2ccnc3cc(Br)ccc23)c1 | > 10 | > 10 | > 10 | > 10 | > 10 | > 10 | > 10
12 | COc1cccc(Nc2ccnc3cc(OCc4ccc(F)cc4)ccc23)c1 | > 10 | > 10 | > 10 | > 10 | > 10 | > 10 | > 10
13 | Fc1ccc2c(Nc3cccc(Cl)c3)ccnc2c1 | > 10 | > 10 | > 10 | > 10 | > 10 | > 10 | > 10
14 | O=[N+]([O-])c1cccc(Nc2ccnc3cc(OCCCc4ccccc4)ccc23)c1 | 7.46 | 8.29 | 4.46 | 4.13 | 8.32 | 5.09 | 6.01
15 | Fc1ccc(COc2ccc3c(Nc4cccc(F)c4)ccnc3c2)cc1 | > 10 | > 10 | > 10 | > 10 | > 10 | > 10 | > 10
16 | CCCCCCCCOc1ccc2c(Nc3cccc(OC)c3)ccnc2c1 | > 10 | > 10 | 8.21 | 7.72 | > 10 | > 10 | 8.13
17 | COc1ccc2c(Nc3cccc(Br)c3)ccnc2c1 | > 10 | > 10 | > 10 | > 10 | > 10 | > 10 | > 10
18 | O=[N+]([O-])c1cccc(Nc2ccnc3cc(Br)ccc23)c1 | > 10 | > 10 | > 10 | > 10 | > 10 | > 10 | > 10
19 | CCOc1ccc2c(Nc3cccc([N+](=O)[O-])c3)ccnc2c1 | > 10 | > 10 | > 10 | 3.42 | > 10 | > 10 | > 10
20 | Clc1cccc(Nc2ccnc3cc(Br)ccc23)c1 | > 10 | > 10 | > 10 | > 10 | > 10 | > 10 | > 10
21 | O=[N+]([O-])c1cccc(Nc2ccnc3cc(OCc4ccc(F)cc4)ccc23)c1 | 8.17 | 8.7 | 6.51 | 5.79 | 9.45 | 7.3 | 9.35
22 | Fc1cccc(Nc2ccnc3cc(Br)ccc23)c1 | > 10 | > 10 | > 10 | > 10 | > 10 | > 10 | > 10

Row | Structure (SMILES) | IC50 [1] [µM] | IC50 [2] [µM] | IC50 [3] [µM] | IC50 [4] [µM] | IC50 [5] [µM] | IC50 [6] [µM] | IC50 [7] [µM]
23 | C=CCOc1ccc2c(Nc3cccc(OC)c3)ccnc2c1 | > 10 | > 10 | 8.06 | 2.2 | 6.65 | > 10 | > 10
24 | CCCCOc1ccc2c(Nc3cccc([N+](=O)[O-])c3)ccnc2c1 | 6.83 | 7.81 | 5.17 | 4.35 | 6.11 | > 10 | 9.56
25 | CCCCOc1ccc2c(Nc3cccc(Br)c3)ccnc2c1 | > 10 | > 10 | > 10 | 0.84 | > 10 | > 10 | > 10
26 | CC(C)Oc1ccc2c(Nc3cccc(F)c3)ccnc2c1 | > 10 | > 10 | 0.59 | 0.2 | > 10 | > 10 | > 10
27 | CCCCOc1ccc2c(Nc3cccc(OC)c3)ccnc2c1 | 7.68 | 8.1 | 8.87 | 6.56 | 7.26 | > 10 | 8.69
28 | COc1ccc2c(Nc3cccc(F)c3)ccnc2c1 | > 10 | > 10 | > 10 | > 10 | > 10 | > 10 | > 10
29 | COc1cccc(Nc2ccnc3cc(F)ccc23)c1 | > 10 | > 10 | > 10 | > 10 | > 10 | > 10 | > 10
30 | Fc1cccc(Nc2ccnc3cc(Cl)ccc23)c1 | > 10 | > 10 | > 10 | > 10 | > 10 | > 10 | > 10
31 | CCOc1ccc2c(Nc3cccc(OC)c3)ccnc2c1 | > 10 | > 10 | 9.55 | 0.41 | > 10 | > 10 | > 10
32 | Fc1cccc(Nc2ccnc3cc(F)ccc23)c1 | > 10 | > 10 | > 10 | > 10 | > 10 | > 10 | > 10
33 | Fc1cccc(Nc2ccnc3cc(OCc4ccccc4)ccc23)c1 | > 10 | > 10 | > 10 | > 10 | > 10 | > 10 | > 10
34 | COc1cccc(Nc2ccnc3cc(OC(C)C)ccc23)c1 | > 10 | > 10 | 0.65 | 0.23 | 4.73 | > 10 | > 10
35 | COc1cccc(Nc2ccnc3cc(OC)ccc23)c1 | > 10 | > 10 | > 10 | > 10 | > 10 | > 10 | > 10
36 | CCCCCCCCOc1ccc2c(Nc3cccc([N+](=O)[O-])c3)ccnc2c1 | > 10 | > 10 | > 10 | > 10 | > 10 | > 10 | > 10
37 | Fc1ccc2c(Nc3cccc(Br)c3)ccnc2c1 | > 10 | > 10 | > 10 | > 10 | > 10 | > 10 | > 10
38 | O=[N+]([O-])c1cccc(Nc2ccnc3cc(Cl)ccc23)c1 | > 10 | > 10 | > 10 | > 10 | > 10 | > 10 | > 10
39 | COc1ccc2c(Nc3ccc(Cl)c(Cl)c3)ccnc2c1 | > 10 | > 10 | > 10 | > 10 | > 10 | > 10 | > 10
40 | CC(C)Oc1ccc2c(Nc3cccc([N+](=O)[O-])c3)ccnc2c1 | > 10 | > 10 | 1.47 | 0.52 | 8.39 | > 10 | > 10
41 | CCCCCCCCOc1ccc2c(Nc3cccc(F)c3)ccnc2c1 | 9.3 | 9.54 | 9.75 | 4.3 | 5.96 | 9.52 | 9.45
42 | Fc1cccc(Nc2ccnc3cc(OCCCc4ccccc4)ccc23)c1 | > 10 | > 10 | 4.62 | 0.25 | > 10 | > 10 | > 10
43 | O=[N+]([O-])c1cccc(Nc2ccnc3cc(OCc4ccccc4)ccc23)c1 | 8.76 | 9.68 | 9.19 | 5.39 | 8.13 | 9.49 | 9.54
